The record followed here is patent publication US9040516B2, “Uracil derivative and use thereof for medical purposes” (SUMITOMO DAINIPPON PHARMA CO., LTD., priority 2011, dated 2015).

For experiment [1], the target named is T1, human neutrophil elastase (Homo sapiens, UniProt P08246).
T1 construct: purchased Elastin Products Company
T1 sequence (P08246 30-267): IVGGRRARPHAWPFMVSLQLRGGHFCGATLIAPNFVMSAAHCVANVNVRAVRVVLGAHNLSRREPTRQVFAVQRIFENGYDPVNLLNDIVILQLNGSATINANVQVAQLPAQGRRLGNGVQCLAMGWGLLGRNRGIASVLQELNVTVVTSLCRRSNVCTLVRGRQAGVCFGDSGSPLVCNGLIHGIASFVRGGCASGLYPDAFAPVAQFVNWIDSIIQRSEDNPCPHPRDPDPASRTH
The experiment is described as follows: Inhibitory action against human neutrophil elastase (Test Example 1; fluorogenic substrate MeOSuc-AAPV-AMC, buffer with 2M NaCl, 0.002% Brij-35). The format is biochemical. Conditions: 37° C., read-out: IC50 value (compound concentration required for 50% inhibition of human neutrophil elastase). The protocol: Assay buffer (0.4 unit/ml HNE (human neutrophil elastase, available from Elastin Products Company), 200 mM HEPES [N-(2-hydroxyethyl)piperazine-N′-(2-ethanesulfonic acid)], pH 7.5, 2M NaCl, 0.002% Brij-35) 100 μl, water for injection 40 μl and DMSO (dimethyl sulfoxide) solution of the present compound 20 μl were mixed in a 96 well plate and the mixed solutions were pre-incubated at 37° C. for five minutes. After pre-incubation, MeOSuc-AAPV-AMC (methoxysuccinyl-alanyl-alanyl-prolyl-valyl-aminomethyl cumaride (available from Sigma Aldrich Co.) solution as fluorogenic substrate (which was dissolved in 10% DMSO solution so as to adjust to 0.5 mM) 40 μl was added to the above-prepared mixed solution so as to initiate the reaction, and the mixture was incubated at 37° C. for five minutes. The fluorescence intensity of AMC was measured at an excitation wavelength of 380 nm and a fluorescence wavelength of 460 nm and the inhibition ratio was determined.

The target in experiment [2] is T1, human neutrophil elastase. The experiment is described as follows: Inhibitory action 2 against human neutrophil elastase (Test Example 2; fluorogenic substrate MeOSuc-AAPV-AMC, buffer with 400 mM NaCl, 0.2 mg/ml BSA). The format is biochemical. Conditions: 37° C., read-out: IC50 value (compound concentration required for 50% inhibition of human neutrophil elastase). The protocol:
Assay buffer (0.4 unit/ml HNE (human neutrophil elastase, available from Elastin Products Company), 200 mM HEPES [N-(2-hydroxyethyl)piperazine-N′-(2-ethanesulfonic acid)], pH 7.5, 400 mM NaCl, 0.2 mg/ml BSA (bovine serum albumin)) 100 μl, water for injection 20 μl and 1% DMSO (dimethyl sulfoxide) solution of the present compound 20 μl were mixed in a 96 well plate and the mixed solutions were pre-incubated at 37° C. for five minutes. After pre-incubation, MeOSuc-AAPV-AMC (methoxysuccinyl-alanyl-alanyl-prolyl-valyl-aminomethyl cumaride (available from Sigma Aldrich Corp.) solution as fluorogenic substrate (which was dissolved in 10% DMSO solution so as to adjust to 0.5 mM) 40 μl was added to the above-prepared mixed solution so as to initiate the reaction, and the mixture was incubated at 37° C. for five minutes. The fluorescence intensity of AMC was measured at an excitation wavelength of 380 nm and a fluorescence wavelength of 460 nm and the inhibition ratio was determined.

Consider “2-[3,6-dimethyl-2,4-dioxo-1-(3-trifluoromethylphenyl)-1,2,3,4-tetrahydropyrimidin-5-yl]biphenyl-4-carbonitrile [Example 60]”, for which, in experiment [1], the IC50 is 76 nM.

With “5-[1-(-chlorophenyl)-1H-pyrazol-5-yl]-3,6-dimethyl-1-(3-trifluoromethylphenyl)pyrimidin-2,4(1H,3H)-dione [Example 21]”, the IC50 in experiment [1] is 252 nM.

Consider `CCOC(=O)Cn1c(=O)c(-c2ccnn2-c2ccc(C#N)cc2)c(C)n(-c2cccc(C(F)(F)F)c2)c1=O` [Example 3], for which, in experiment [1], the IC50 came to 104 nM.

In the case of `CCOC(=O)CCn1c(=O)c(-c2ccnn2-c2ccc(C#N)cc2)c(C)n(-c2cccc(C(F)(F)F)c2)c1=O` [Example 4, 3-[5-[1-(4-cyanophenyl)-1H-pyrazol-5-yl]-4-methyl-2,6-dioxo-3-(3-trifluoromethylphenyl)-2,3-dihydropyrimidin-1(6H)-yl]propanoic acid ethyl ester], in experiment [1], the IC50 came to 131 nM.

For `CCOC(=O)CCCn1c(=O)c(-c2ccnn2-c2ccc(C#N)cc2)c(C)n(-c2cccc(C(F)(F)F)c2)c1=O` [Example 5, 4-[5-[1-(4-cyanophenyl)-1H-pyrazol-5-yl]-4-methyl-2,6-dioxo-3-(3-trifluoromethylphenyl)-2,3-dihydropyrimidin-1(6H)-yl]butanoic acid ethyl ester], in experiment [1], the IC50 came out at 170 nM.

For the molecule `Cc1c(-c2ccnn2-c2ccc(C#N)cc2)c(=O)n(CC(=O)OCc2ccccc2)c(=O)n1-c1cccc(C(F)(F)F)c1` [Example 6, 2-[5-[1-(4-cyanophenyl)-1H-pyrazol-5-yl]-4-methyl-2,6-dioxo-3-(3-trifluoromethylphenyl)-2,3-dihydropyrimidin-1(6H)-yl]acetic acid benzyl ester], in experiment [1], the IC50 was found to be 123 nM.

As for `Cc1c(-c2c(N3CCOCC3)cnn2-c2ccc(C#N)cc2)c(=O)n(C)c(=O)n1-c1cccc(C(F)(F)F)c1` [Example 315, 4-(5-(3,6-Dimethyl-2,4-dioxo-1-(3-trifluoromethylphenyl)-1,2,3,4-tetrahydropyrimidin-5-yl)-4-morpholino-1H-pyrazol-1-yl)benzonitrile], the IC50 in experiment [2] stood at 24.2 nM.

In the case of `Cc1c(-c2c(N3CCN(C(C)C)CC3)cnn2-c2ccc(C#N)cc2)c(=O)n(C)c(=O)n1-c1cccc(C(F)(F)F)c1` [Example 318], the IC50 in experiment [2] came to 14.9 nM.

For the molecule `Cc1c(-c2ccnn2-c2ccc(C#N)cc2)c(=O)n([C@H](C)CS(N)(=O)=O)c(=O)n1-c1cccc(C(F)(F)F)c1` [Example 324, (R)-2-(5-(1-(4-Cyanophenyl)-1H-pyrazol-5-yl)-4-methyl-2,6-dioxo-3-(3-trifluoromethylphenyl)-2,3-dihydropyrimidin-1(6H)-yl)propane-1-sulfonamide], the IC50 in experiment [2] was 9.6 nM.

Take `Cc1c(-c2ccnn2-c2ccc(C#N)cc2F)c(=O)n(C)c(=O)n1-c1cccc(C(F)(F)F)c1` [Example 326]: the IC50 in experiment [2] was 24.3 nM.

As to `Cc1cc(C#N)ccc1-n1nccc1-c1c(C)n(-c2cccc(C(F)(F)F)c2)c(=O)n(C)c1=O` [Example 328], the IC50 in experiment [2] turned out to be 24.8 nM.

`CC(=O)N1CCC(n2c(=O)c(-c3ccnn3-c3ccc(C#N)cc3)c(C)n(-c3cccc(C(F)(F)F)c3)c2=O)CC1` [Example 337]: the IC50 in experiment [2] came to 4.5 nM.

Consider `CCCN1CCC(n2c(=O)c(-c3ccnn3-c3ccc(C#N)cc3)c(C)n(-c3cccc(C(F)(F)F)c3)c2=O)C1` (stereo not shown) [Example 343], for which the IC50 in experiment [2] came out at 7.3 nM.

Take `Cc1c(-c2ccnn2-c2ccc(C#N)cc2)c(=O)n(C2CCN(C(=O)C(C)(C)O)CC2)c(=O)n1-c1cccc(C(F)(F)F)c1` [Example 355]: in experiment [2], the IC50 turned out to be 8.1 nM.

Consider `Cc1c(-c2ccnn2-c2ccc(C#N)cc2)c(=O)n(C2CCN(C(=O)C(C)(C)N)CC2)c(=O)n1-c1cccc(C(F)(F)F)c1` [Example 357], for which, in experiment [2], the IC50 was 10.2 nM.

Consider `Cc1c(-c2c(F)cnn2-c2ccc(C#N)cc2)c(=O)n(C)c(=O)n1-c1cccc(C(F)(F)F)c1` [Example 358, 4-(5-(3,6-dimethyl-2,4-dioxo-1-(3-trifluoromethylphenyl)-1,2,3,4-tetrahydropyrimidin-5-yl)-4-fluoro-1H-pyrazol-1-yl)benzonitrile], for which the IC50 in experiment [2] worked out at 29.5 nM.

Consider `CC(=O)N1CCC(n2c(=O)c(-c3c(F)cnn3-c3ccc(C#N)cc3)c(C)n(-c3cccc(C(F)(F)F)c3)c2=O)CC1` [Example 359], for which the IC50 in experiment [2] is 15.3 nM.

For `Cc1c(-c2c(Cl)cnn2-c2ccc(C#N)cc2)c(=O)n(C)c(=O)n1-c1cccc(C(F)(F)F)c1` [Example 360, 4-(4-chloro-5-(3,6-dimethyl-2,4-dioxo-1-(3-trifluoromethylphenyl)-1,2,3,4-tetrahydropyrimidin-5-yl)-1H-pyrazol-1-yl)benzonitrile], the IC50 in experiment [2] was found to be 16.7 nM.

`Cc1c(-c2c(Cl)cnn2-c2ccc(C#N)cc2)c(=O)n(C(C)C(N)=O)c(=O)n1-c1cccc(C(F)(F)F)c1` (stereo not shown) [Example 361]: the IC50 in experiment [2] was 6.3 nM.

As to `Cc1c(-c2c(C#N)cnn2-c2ccc(C#N)cc2)c(=O)n(C)c(=O)n1-c1cccc(C(F)(F)F)c1` [Example 363, 1-(4-Cyanophenyl)-5-(3,6-dimethyl-2,4-dioxo-1-(3-trifluoromethyl)-1,2,3,4-tetrahydropyrimidin-5-yl)-1H-pyrazole-4-carbonitrile], in experiment [2], the IC50 is 19.1 nM.

With `Cc1c(-c2c(C#N)cnn2-c2ccc(C#N)cc2)c(=O)n([C@@H]2CCN(C)C2)c(=O)n1-c1cccc(C(F)(F)F)c1` [Example 367], the IC50 in experiment [2] is 14 nM.

For `Cc1c(-c2ccnn2-c2ccc(C#N)cc2)c(=O)n([C@H](C)CS(C)(=O)=O)c(=O)n1-c1cccc(C(F)(F)F)c1` [Example 375], the IC50 in experiment [2] stood at 12.3 nM.

Regarding `Cc1c(-c2ccnn2-c2ccc(C#N)cc2)c(=O)n(C(C)C(=O)N(C)C)c(=O)n1-c1cccc(C(F)(F)F)c1` (stereo not shown) [Example 379], the IC50 in experiment [2] turned out to be 18.7 nM.

Take `Cc1c(-c2ccnn2-c2ccc(C#N)cc2)c(=O)n(C(C)C(=O)N2CC(O)C2)c(=O)n1-c1cccc(C(F)(F)F)c1` (stereo not shown) [Example 383]: the IC50 in experiment [2] stood at 12.8 nM.

On to `Cc1c(-c2ccnn2-c2ccc(C#N)cc2)c(=O)n(C(C)CN2CCOCC2)c(=O)n1-c1cccc(C(F)(F)F)c1` (stereo not shown) [Example 386], for which, in experiment [2], the IC50 worked out at 10.1 nM.

Consider `Cc1c(-c2ccnn2-c2ccc(C#N)cc2)c(=O)n(C(C)CN2CCC(S(C)(=O)=O)CC2)c(=O)n1-c1cccc(C(F)(F)F)c1` (stereo not shown) [Example 387], for which, in experiment [2], the IC50 worked out at 8.9 nM.

Take `Cc1c(-c2ccnn2-c2ccc(C#N)cc2)c(=O)n(C(C)CN2CC(O)C2)c(=O)n1-c1cccc(C(F)(F)F)c1` (stereo not shown) [Example 390]: the IC50 in experiment [2] came out at 10.4 nM.

In the case of `Cc1c(-c2ccnn2-c2ccc(C#N)cc2)c(=O)n(C(C)CNS(C)(=O)=O)c(=O)n1-c1cccc(C(F)(F)F)c1` (stereo not shown) [Example 393], the IC50 in experiment [2] worked out at 26.3 nM.

As to `Cc1c(-c2ccnn2-c2ccc(C#N)cc2)c(=O)n(C(C)CCN2CCOCC2)c(=O)n1-c1cccc(C(F)(F)F)c1` (stereo not shown) [Example 399], the IC50 in experiment [2] came out at 12.9 nM.

On to `Cc1c(-c2ccnn2-c2ccc(C#N)cc2)c(=O)n(C(C)CCNC2CC(F)(F)C2)c(=O)n1-c1cccc(C(F)(F)F)c1` (stereo not shown) [Example 406], for which the IC50 in experiment [2] came out at 12.9 nM.

Consider `Cc1c(-c2ccnn2-c2ccc(C#N)cc2)c(=O)n(C(C)CCNc2ccncc2)c(=O)n1-c1cccc(C(F)(F)F)c1` (stereo not shown) [Example 408], for which, in experiment [2], the IC50 worked out at 14.7 nM.
